# Columns and labels:
# striatal DA release = assay: Electrically evoked striatal DA release in brain slices (fast scanning cyclic voltammetry); conditions: 10 μM DHPG alone, mouse slices
# Method: into the home cage. The arena is then cleaned with 70% ethanol in between animals. The day of the test the animals are habituated to the dosing room for 2 hours. The animals were administered VU6024578 (1-10 mg/kg p.o.) or vehicle (10% Tween 80) and were placed back into their homecage for 60 min. The animals were then injected with MK-801 (0.075 mg/kg 1 ml/kg s.c.) and placed back in the homecage for 30 min. The animals are then placed into the arena with two identical familiar objects for ten minutes and then placed back into the home cage. The animals are then placed back into the arena with one of the familiar objects replaced with a novel object at 120 min after the familiar object exposure. The activity of the animals are recorded and the time spent exploring each of the objects is scored by a blinded observer. Recognition index is determined by subtracting […] divided by total time spent exploring.
# Brain Slice Preparation and Fast Scanning Cyclic Voltammetry: […]
# Electrically-evoked dopamine overflow was monitored with carbon fiber electrodes as previously reported (Foster et al. 2014). […]
# [1] = test system: amphetamine-induced hyperlocomotion in rats; set-up: method as in PMID 39665415; conditions: cited from earlier work
# human mGlu1 = target: T1, human mGlu1 (Homo sapiens, UniProt Q13255); set-up: method as in PMID 39665415; conditions: previously reported compound; cited from earlier work
# T1 construct: expressed in transfected cells; pcDNA5/TO)
# [2] = set-up: method as in PMID 39665415; conditions: cited from earlier work
# T1 sequence (Q13255 19-1194): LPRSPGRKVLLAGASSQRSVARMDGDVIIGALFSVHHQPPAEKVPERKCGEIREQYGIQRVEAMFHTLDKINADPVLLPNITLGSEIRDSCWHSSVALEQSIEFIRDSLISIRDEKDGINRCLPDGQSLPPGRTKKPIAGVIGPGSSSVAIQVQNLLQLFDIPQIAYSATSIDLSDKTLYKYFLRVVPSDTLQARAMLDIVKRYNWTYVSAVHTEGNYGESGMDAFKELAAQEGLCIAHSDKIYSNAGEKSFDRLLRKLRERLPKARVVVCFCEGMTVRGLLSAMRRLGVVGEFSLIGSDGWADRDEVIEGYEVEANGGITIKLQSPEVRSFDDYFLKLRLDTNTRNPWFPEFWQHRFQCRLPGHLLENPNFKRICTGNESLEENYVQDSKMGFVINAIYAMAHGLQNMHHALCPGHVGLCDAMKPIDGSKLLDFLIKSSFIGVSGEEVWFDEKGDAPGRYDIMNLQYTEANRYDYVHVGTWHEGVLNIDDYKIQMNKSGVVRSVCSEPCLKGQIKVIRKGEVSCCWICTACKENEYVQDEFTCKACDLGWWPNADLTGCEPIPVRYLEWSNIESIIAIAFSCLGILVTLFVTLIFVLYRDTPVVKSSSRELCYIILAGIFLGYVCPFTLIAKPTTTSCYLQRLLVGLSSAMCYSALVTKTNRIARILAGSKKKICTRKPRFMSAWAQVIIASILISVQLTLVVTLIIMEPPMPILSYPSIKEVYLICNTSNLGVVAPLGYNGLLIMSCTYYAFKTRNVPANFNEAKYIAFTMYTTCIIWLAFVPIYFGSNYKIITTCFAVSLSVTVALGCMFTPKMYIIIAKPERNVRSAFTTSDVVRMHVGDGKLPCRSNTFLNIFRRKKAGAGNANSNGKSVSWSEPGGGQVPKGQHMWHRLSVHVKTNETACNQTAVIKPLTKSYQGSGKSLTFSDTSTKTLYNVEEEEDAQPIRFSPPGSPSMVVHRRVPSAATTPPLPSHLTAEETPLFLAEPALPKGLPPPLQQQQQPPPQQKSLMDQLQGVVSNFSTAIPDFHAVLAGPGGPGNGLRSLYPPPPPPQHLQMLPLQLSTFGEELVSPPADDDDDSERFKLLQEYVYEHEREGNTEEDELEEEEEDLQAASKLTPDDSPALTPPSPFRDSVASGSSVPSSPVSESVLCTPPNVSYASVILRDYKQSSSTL
Structure (SMILES),"effect on striatal DA release, agonist alone (striatal DA release)",unbound brain level as fold of rat mGlu1 EC50 at which AHL was reversed [1],mGlu1 Glumax of 3 (human mGlu1),species with adverse events [2]
"N[C@H](C(=O)O)c1cc(O)cc(O)c1 [DHPG, (S)-3,5-dihydroxyphenylglycine, reference compound]",did not produce a significant inhibition of striatal DA release,–,–,–
Cn1nc(-c2ccnn2C)cc1CNC(=O)c1cc(-c2ccco2)ccc1Cl [compound 3],–,~0.7 fold,83%,only exhibited AEs in dogs

# — PMC11843613, “Further Optimization of the mGlu1 PAM VU6024578/BI02982816: Discovery and Characterization of VU6033685” (ACS Chemical Neuroscience, 2025)
